The nature of data set [1]: Solubility in n-butanol with and without water. Type of data set: physicochemical. An excerpt:
In step (f), an amount of water is removed from the solution of step (e) that is sufficient for inducing crystallization of the Trandolaprilat and provide crystalline Trandolaprilat in a polymorphic or pseudopolymorphic form. Because Trandolaprilat is not soluble in anhydrous n-butanol, its crystallization from the organic layer can be initiated by removing the water, for example, by concentrating an n-butanol/water solution containing the Trandolaprilat using azeotropic distillation (to provide crystalline Trandolaprilat).

The nature of data set [2]: Degradation to Trandolaprilat diketopiperazine in non-hydroxylic solvent (THF solution). The format is physicochemical. The text has this:
Furthermore, crystallization and precipitation from non-hydroxylic solvents often provided a resin that could only be difficultly handled.

Data set [3] addresses Angiotensin Converting Enzyme (ACE enzyme) (Homo sapiens, UniProt P12821). The settings on record: compared with Trandolapril; cited from earlier work.
Data set [4] in a line: Storage stability of crystalline forms (decomposition to Trandolaprilat diketopiperazine, by HPLC). The format is physicochemical. The settings on record: for Amount of Trandolaprilat Diketopiperazine after Isolation and Drying of the Wet Product: before storage; for Tendency to decompose to Trandolaprilat Diketopiperazine on storage (in words): comparison of crystalline forms, Table 9. The method, then:
Purity was determined by HPLC using a Luna C18 (150×4.6 mm, 3 μm; Manufacturer: Phenomenex, Torrence, Calif., USA) column, as well as a Symmetry C18(2) (150×4.6 mm, 3.5 μm; Manufacturer: Waters Corporation, Millford, Mass., USA) column using as mobile phase: Mobile phase A: 0.03% v/v of trifluoroacetic acid in water; Mobile phase B: 0.025% v/v of trifluoroacetic acid in acetonitrile; column temperature 30° C., flow rate: 1.5 ml/min, detection: UV 206 nm; eluent gradient: […]

The mark [5] stands for this setting: storage temperature 20-25, storage time 4 months.

Each structure is given as a SMILES string. Where “and” joins values, the source holds several entries; their conditions need not be identical. Identical values can stand only once.

Results on six compounds are retold here after patent US7943655B2, “Polymorphic and pseudopolymorphic forms of trandolaprilat, pharmaceutical compositions and methods for production and use” (Universitat Zurich, priority 2006, dated 2011).

Angiotensin Converting Enzyme (ACE enzyme), sequence (P12821 30-1306, species assumed): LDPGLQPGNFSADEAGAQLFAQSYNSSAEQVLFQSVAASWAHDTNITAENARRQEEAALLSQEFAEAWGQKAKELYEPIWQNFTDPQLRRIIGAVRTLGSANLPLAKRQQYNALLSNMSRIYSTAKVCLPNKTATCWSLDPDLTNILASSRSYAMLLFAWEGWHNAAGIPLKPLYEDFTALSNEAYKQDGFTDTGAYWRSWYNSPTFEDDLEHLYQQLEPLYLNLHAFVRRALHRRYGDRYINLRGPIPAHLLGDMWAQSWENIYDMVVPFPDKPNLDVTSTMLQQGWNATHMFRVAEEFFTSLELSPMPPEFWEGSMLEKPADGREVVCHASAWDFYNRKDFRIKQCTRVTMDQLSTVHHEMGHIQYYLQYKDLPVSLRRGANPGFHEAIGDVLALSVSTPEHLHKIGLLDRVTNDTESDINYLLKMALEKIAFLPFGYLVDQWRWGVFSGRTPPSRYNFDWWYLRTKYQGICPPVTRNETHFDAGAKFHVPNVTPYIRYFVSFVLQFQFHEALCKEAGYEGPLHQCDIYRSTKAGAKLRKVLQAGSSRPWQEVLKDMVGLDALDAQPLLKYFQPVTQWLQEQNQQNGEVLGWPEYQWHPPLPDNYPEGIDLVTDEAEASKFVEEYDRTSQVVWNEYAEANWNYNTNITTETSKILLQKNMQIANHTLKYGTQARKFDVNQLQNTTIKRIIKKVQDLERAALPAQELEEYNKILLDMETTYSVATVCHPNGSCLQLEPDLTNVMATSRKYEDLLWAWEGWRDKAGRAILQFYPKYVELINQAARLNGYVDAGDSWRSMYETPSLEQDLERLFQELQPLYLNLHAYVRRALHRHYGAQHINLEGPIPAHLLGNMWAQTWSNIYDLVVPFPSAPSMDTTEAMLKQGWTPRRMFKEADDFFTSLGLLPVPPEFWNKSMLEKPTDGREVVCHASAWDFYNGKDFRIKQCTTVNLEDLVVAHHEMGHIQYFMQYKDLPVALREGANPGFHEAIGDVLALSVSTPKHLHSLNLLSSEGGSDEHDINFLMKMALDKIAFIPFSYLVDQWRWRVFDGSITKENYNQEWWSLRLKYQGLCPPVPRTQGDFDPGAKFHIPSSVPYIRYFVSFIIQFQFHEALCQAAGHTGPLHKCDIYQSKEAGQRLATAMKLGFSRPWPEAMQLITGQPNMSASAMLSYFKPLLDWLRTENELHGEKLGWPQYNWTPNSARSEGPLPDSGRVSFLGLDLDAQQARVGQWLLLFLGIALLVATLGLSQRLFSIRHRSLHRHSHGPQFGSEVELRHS

For the compound `C[C@H](N[C@@H](CCc1ccccc1)C(=O)O)C(=O)N1[C@H](C(=O)O)C[C@H]2CCCC[C@@H]21` [Trandolaprilat], the Solubility result is recorded as “not soluble” in data set [1] (anhydrous n-butanol) and “soluble” in data set [1] (free amino acid form, n-butanol saturated with water). For the same compound, in data set [2] (THF solution heated at reflux temperature), the “Formation of degradation product Trandolaprilat diketopiperazine” value was “almost complete within a few hours”. In data set [2] (dissolved in THF, room temperature), the “Rate of degradation to Trandolaprilat diketopiperazine” value is on record as “at least 0.2 % per hour”. For the same compound, the “Potency as an inhibitor of ACE activity relative to Trandolapril” value in data set [3] was “about eight times more potent than Trandolapril”.

In the case of `C[C@H](N[C@@H](CCc1ccccc1)C(=O)O)C(=O)N1[C@H](C(=O)O)C[C@H]2CCCC[C@@H]21` [Form C, Trandolaprilat], in data set [4], the “Amount of Trandolaprilat Diketopiperazine after Isolation and Drying of the Wet Product” value (shortened to “Amount … of the Wet Product”) was “Not Detected”; the “Tendency to decompose to Trandolaprilat Diketopiperazine on storage (in words)” value (shortened to “Tendency to decompose”) is reported as “significantly lower”. Besides, the “Amount of Trandolaprilat Diketopiperazine after Storage” value (“Amount … after Storage” for short) in data set [4] (setting [5]) worked out at 0.26 % by HPLC.

`C[C@H](N[C@@H](CCc1ccccc1)C(=O)O)C(=O)N1[C@H](C(=O)O)C[C@H]2CCCC[C@@H]21` [Form B, Trandolaprilat]: in data set [4], the “Amount … of the Wet Product” value is given as “Not Detected”; the “Tendency to decompose” value is given as “significantly lower”. Besides, in data set [4] (setting [5]), the “Amount … after Storage” value is on record as 0.20 % by HPLC.

`C[C@H](N[C@@H](CCc1ccccc1)C(=O)O)C(=O)N1[C@H](C(=O)O)C[C@H]2CCCC[C@@H]21` [Form E, Trandolaprilat]: in data set [4], the “Amount … of the Wet Product” value was 0.34 %, by HPLC and 0.19 %, by HPLC; the “Tendency to decompose” value was “greater tendency to decompose”. Moreover, the “Amount … after Storage” value in data set [4] (storage temperature 4-8, storage time 3 months) turned out to be 0.75 % by HPLC. In data set [4] (storage temperature 20-25, storage time 3 months), the “Amount … after Storage” value was found to be 0.92 % by HPLC.

As to `C[C@H](N[C@@H](CCc1ccccc1)C(=O)O)C(=O)N1[C@H](C(=O)O)C[C@H]2CCCC[C@@H]21` [Form D, Trandolaprilat], in data set [4], the “Amount … of the Wet Product” value was “Not Detected”; the “Tendency to decompose” value was “only a very low quantity of the degradation product”. In data set [4] (setting [5]), the “Amount … after Storage” value was 0.03 % by HPLC.

For the compound `C[C@H](N[C@@H](CCc1ccccc1)C(=O)O)C(=O)N1[C@H](C(=O)O)C[C@H]2CCCC[C@@H]21` [Form A, Trandolaprilat], in data set [4], the “Amount … of the Wet Product” value is “Not Detected”; the “Tendency to decompose” value is “only a very low quantity of the degradation product”. In addition, the “Amount … after Storage” value in data set [4] (setting [5]) was found to be 0.02 % by HPLC.
